# Test results taken from ChEMBL document CHEMBL1130255, “Intensely cytotoxic anthracycline prodrugs: glucuronides” (J Med Chem, 1997).
# Experiments:
# [1] = Half-life when incubated at 37 C in 0.05 M phosphate buffer, pH 7.4, the concentration of 12 uM,; assay type: ADME
# glucuronidase = assay: Half-life in the presence of Escherichia coli -glucuronidase; assay type: ADME; conditions: Escherichia coli glucuronidase enzyme
smiles,measurement,setting,value
CCOC(CCCN)O[C@@H]1O[C@H](C(=O)[O-])[C@@H](O)[C@H](O)[C@H]1O.[Na+] (some centres not stated),half-life at 12 µM,[1],30 h
same,half-life,glucuronidase,1.7 h
